Results published in US9394297B2, “Amides as pim inhibitors” (AMGEN INC., priority 2012, dated 2016).
Like-named read-outs stand apart in the source and are kept apart here.

How the values were obtained:
Pim-1 = Pim-1 (Homo sapiens (Human), UniProt P11309); assay: Pim-Mn enzyme assay (HTRF, 384-well), Pim-1; format: biochemical; details: read-out: Pim-1-Mn IC50 IP
[1] = test system: KMS-12-BM myeloma cell line; assay: Pim KMS-12 cell assay (phospho-BAD S112 / total BAD, MSD)
Pim-2 = Pim-2 (Homo sapiens (Human), UniProt Q9P1W9); assay: Pim-Mn enzyme assay (HTRF, 384-well), Pim-2; format: biochemical; details: Pim-2 enzyme 0.5 pM, ATP 1.5 μM, BAD (S112) 0.5 μM, HTRF, 22-point curve; read-out: Pim-2-Mn IC50 IP
[2] = Pim-1 enzyme 5 pM, ATP 1.5 μM, BAD (S112) 0.5 μM, HTRF, 22-point curve
[3] = Homo sapiens, KMS-12-BM, read-out: KMS-12-BM IC50 IP, KMS-12-BM cells, phospho-BAD (S112) vs total BAD, 1 hour 50 min with compound
[4] = Homo sapiens, KMS-12-BM, read-out: KMS-12-BM IC50 IP

Chain of Pim-2 (Q9P1W9 whole entry): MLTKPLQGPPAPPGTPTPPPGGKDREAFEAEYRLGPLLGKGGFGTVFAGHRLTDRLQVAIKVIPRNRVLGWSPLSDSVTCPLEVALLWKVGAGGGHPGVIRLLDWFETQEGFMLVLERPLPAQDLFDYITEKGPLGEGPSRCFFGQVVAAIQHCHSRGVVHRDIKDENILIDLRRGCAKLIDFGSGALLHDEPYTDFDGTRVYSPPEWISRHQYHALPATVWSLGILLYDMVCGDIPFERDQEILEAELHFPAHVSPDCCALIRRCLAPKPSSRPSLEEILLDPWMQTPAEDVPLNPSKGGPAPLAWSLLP
Chain of Pim-1 (P11309 whole entry): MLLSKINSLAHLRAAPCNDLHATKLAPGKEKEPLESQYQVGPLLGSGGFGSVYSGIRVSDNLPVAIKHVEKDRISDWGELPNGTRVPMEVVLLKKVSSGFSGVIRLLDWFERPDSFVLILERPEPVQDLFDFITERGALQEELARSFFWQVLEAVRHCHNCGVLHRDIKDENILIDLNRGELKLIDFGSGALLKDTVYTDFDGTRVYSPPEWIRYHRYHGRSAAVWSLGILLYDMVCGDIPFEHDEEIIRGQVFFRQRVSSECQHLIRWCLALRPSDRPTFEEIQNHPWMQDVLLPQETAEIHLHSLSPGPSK

Compound	IC50 (Pim-1; [2])	IC50 [1, 3]	IC50 (Pim-2)	IC50 [1, 4]	IC50 ([1]; read-out: KMS-12-BM IC50 IP, KMS-12-BM cells, phospho-BAD (S112) vs total BAD, 1 hour 50 min with compound)	IC50 (Pim-1)
Cc1nc2cccc(-c3cc4c([nH]3)CCNC4=O)c2nc1NCC1(C)COC1 [Example 281, 2-(2-methyl-3-(((3-methyl-3-oxetanyl)methyl)amino)-5-quinoxalinyl)-1,5,6,7-tetrahydro-4H-pyrrolo[3,2-c]pyridin-4-one]	6.7 nM	533 nM	2.8 nM	–	–	–
Cc1nc2cccc(-c3cc4c(=O)[nH]cnc4[nH]3)c2nc1NC1CCC1 [Example 260, 6-(3-(cyclobutylamino)-2-methylquinoxalin-5-yl)-3H-pyrrolo[2,3-d]pyrimidin-4(7H)-one]	1.6 nM	243 nM	1.23 nM	–	–	–
CN(c1cnc2cccc(-c3cc4c([nH]3)CCNC4=O)c2n1)C(C)(C)C [Example 215, 2-(3-(tert-butyl(methyl)amino)quinoxalin-5-yl)-6,7-dihydro-1H-pyrrolo[3,2-c]pyridin-4(5H)-one]	0.6 nM	–	0.7 nM	153 nM	–	–
COCC(C)(C)Nc1nc2c(-c3cc4c([nH]3)CCNC4=O)cccc2nc1C [Example 66, 2-(3-((2-methoxy-1,1-dimethylethyl)amino)-2-methyl-5-quinoxalinyl)-1,5,6,7-tetrahydro-4H-pyrrolo[3,2-c]pyridin-4-one]	2.7 nM	–	0.7 nM	–	215 nM	–
Cc1nc2cccc(-c3cc4c([nH]3)CCNC4=O)c2nc1NCC(C)(C)N [Example 70, 2-(3-((2-amino-2-methylpropyl)amino)-2-methyl-5-quinoxalinyl)-1,5,6,7-tetrahydro-4H-pyrrolo[3,2-c]pyridin-4-one]	4.3 nM	2910 nM	6.3 nM	–	–	–
CCN(c1cnc2cccc(-c3cc4c([nH]3)CCNC4=O)c2n1)C(C)(C)C [Example 220, 2-(3-(tert-butyl(ethyl)amino)quinoxalin-5-yl)-6,7-dihydro-1H-pyrrolo[3,2-c]pyridin-4(5H)-one]	0.1 nM	86.3 nM	0.1 nM	–	–	–
Cc1nc2cccc(-c3cc4c([nH]3)CCNC4=O)c2nc1NC1CCCCC1O (racemic) [Example 205, 2-(3-((2-hydroxycyclohexyl)amino)-2-methylquinoxalin-5-yl)-6,7-dihydro-1H-pyrrolo[3,2-c]pyridin-4(5H)-one]	4.9 nM	1140 nM	4.5 nM	–	–	–
Cc1nc2cccc(-c3cc4c(=O)[nH]cnc4[nH]3)c2nc1NC(C)(C)CO [Example 263, 6-(3-((1-hydroxy-2-methylpropan-2-yl)amino)-2-methylquinoxalin-5-yl)-3H-pyrrolo[2,3-d]pyrimidin-4(7H)-one]	5.1 nM	907 nM	5.8 nM	–	–	–
Cc1nc2cccc(-c3cc4c([nH]3)CCNC4=O)c2nc1NC1(C)CC1 [Example 202, 2-(2-methyl-3-((1-methylcyclopropyl)amino)quinoxalin-5-yl)-6,7-dihydro-1H-pyrrolo[3,2-c]pyridin-4(5H)-one]	0.3 nM	41.3 nM	0.3 nM	–	–	–
CC(C)(C)Nc1cnc2cccc(-c3cc4n(c3)CCNC4=O)c2n1 [Example 173, 7-(3-(tert-butylamino)quinoxalin-5-yl)-3,4-dihydropyrrolo[1,2-a]pyrazin-1(2H)-one]	1.3 nM	181 nM	1.4 nM	–	–	–
CC(C)(C)Nc1cnc2cccc(-c3cc4c([nH]3)CCNC4=O)c2n1 [Example 210, 2-(3-(tert-butylamino)quinoxalin-5-yl)-6,7-dihydro-1H-pyrrolo[3,2-c]pyridin-4(5H)-one]	0.2 nM	60.1 nM	0.3 nM	–	–	–
COc1nc2cccc(-c3cc4c([nH]3)CCNC4=O)c2nc1NC(C)(C)C [Example 276, 2-(3-(tert-butylamino)-2-methoxy-5-quinoxalinyl)-1,5,6,7-tetrahydro-4H-pyrrolo[3,2-c]pyridin-4-one]	1.8 nM	1220 nM	5 nM	–	–	–
Cc1nc2cccc(-c3cc4c([nH]3)CCNC4=O)c2nc1N(C)C(C)(C)C [Example 222, 2-(3-(tert-butyl(methyl)amino)-2-methylquinoxalin-5-yl)-6,7-dihydro-1H-pyrrolo[3,2-c]pyridin-4(5H)-one]	3.5 nM	–	2.1 nM	397 nM	–	–
Cc1nc2cccc(-c3cc4c([nH]3)CCNC4=O)c2nc1NC1CCOC1 (racemic) [Example 71, 2-(2-methyl-3-((±)-tetrahydro-3-furanylamino)-5-quinoxalinyl)-1,5,6,7-tetrahydro-4H-pyrrolo[3,2-c]pyridin-4-one]	6.4 nM	474 nM	6.1 nM	–	–	–
Cc1nc2cccc(-c3cc4c([nH]3)CCNC4=O)c2nc1N[C@H]1CCCNC1 [Example 76, (S)-2-(2-methyl-3-(piperidin-3-ylamino)quinoxalin-5-yl)-6,7-dihydro-1H-pyrrolo[3,2-c]pyridin-4(5H)-one]	8.1 nM	6130 nM	27 nM	–	–	–
Cc1nc2cccc(-c3cc4c([nH]3)CCNC4=O)c2nc1NC1(C)CCCC1 [Example 67, 2-(2-methyl-3-((1-methylcyclopentyl)amino)-5-quinoxalinyl)-1,5,6,7-tetrahydro-4H-pyrrolo[3,2-c]pyridin-4-one]	0.4 nM	167 nM	0.6 nM	–	–	–
Cc1nc2cccc(-c3cc4n(c3)CCNC4=O)c2nc1NC1(C)CC1 [Example 100, 7-(2-methyl-3-((1-methylcyclopropyl)amino)quinoxalin-5-yl)-3,4-dihydropyrrolo[1,2-a]pyrazin-1(2H)-one 2,2,2-trifluoroacetate]	1.34 nM	144 nM	0.961 nM	–	–	–
Cc1nc2cccc(-c3cc4c([nH]3)CCNC4=O)c2nc1N(C)C(C)C [Example 68, 2-(2-methyl-3-(methyl(1-methylethyl)amino)-5-quinoxalinyl)-1,5,6,7-tetrahydro-4H-pyrrolo[3,2-c]pyridin-4-one]	4.5 nM	445 nM	6.1 nM	–	–	–
Cc1nc2cccc(-c3cc4c([nH]3)CCNC4=O)c2nc1N[C@H](C)C1CC1 [Example 271, 2-(3-(((1R)-1-cyclopropylethyl)amino)-2-methyl-5-quinoxalinyl)-1,5,6,7-tetrahydro-4H-pyrrolo[3,2-c]pyridin-4-one]	1.3 nM	418 nM	2 nM	–	–	–
Cc1nc2cccc(-c3cc4n(c3)CCNC4=O)c2nc1NC(C)(C)C [Example 174, 7-(3-(tert-butylamino)-2-methylquinoxalin-5-yl)-3,4-dihydropyrrolo[1,2-a]pyrazin-1(2H)-one]	5.9 nM	336 nM	3.5 nM	–	–	–
CNc1nc2c(-c3cc4c([nH]3)CCNC4=O)cccc2nc1C [Example 219, 2-(2-methyl-3-(methylamino)quinoxalin-5-yl)-6,7-dihydro-1H-pyrrolo[3,2-c]pyridin-4(5H)-one]	7.8 nM	346 nM	4.1 nM	–	–	–
CC1(C)CNCCN1c1cnc2cccc(-c3cc4c([nH]3)CCNC4=O)c2n1 [Example 217, 2-(3-(2,2-dimethylpiperazin-1-yl)quinoxalin-5-yl)-6,7-dihydro-1H-pyrrolo[3,2-c]pyridin-4(5H)-one]	2 nM	933 nM	5.3 nM	–	–	–
Cc1nc2cccc(-c3cc4c([nH]3)CCNC4=O)c2nc1NC1(C)CCCCC1 [Example 155, 2-(2-methyl-3-((1-methylcyclohexyl)amino)quinoxalin-5-yl)-6,7-dihydro-1H-pyrrolo[3,2-c]pyridin-4(5H)-one]	–	292 nM	1.5 nM	–	–	0.7 nM
CC1(C)CCCCN1c1cnc2cccc(-c3cc4c([nH]3)CCNC4=O)c2n1 [Example 212, 2-(3-(2,2-dimethylpiperidin-1-yl)quinoxalin-5-yl)-6,7-dihydro-1H-pyrrolo[3,2-c]pyridin-4(5H)-one]	1.3 nM	538 nM	2.3 nM	–	–	–
CC1(C)COCCN1c1cnc2cccc(-c3cc4c([nH]3)CCNC4=O)c2n1 [Example 213, 2-(3-(3,3-dimethylmorpholino)quinoxalin-5-yl)-6,7-dihydro-1H-pyrrolo[3,2-c]pyridin-4(5H)-one]	–	227 nM	3.2 nM	–	–	1.6 nM
Cc1nc2cccc(-c3cc4c([nH]3)CCNC4=O)c2nc1NC1(CO)CC1 [Example 277, 2-(3-((1-(hydroxymethyl)cyclopropyl)amino)-2-methyl-5-quinoxalinyl)-1,5,6,7-tetrahydro-4H-pyrrolo[3,2-c]pyridin-4-one]	1 nM	169 nM	0.4 nM	–	–	–
Cc1nc2cccc(-c3cc4c([nH]3)CCNC4=O)c2nc1SC(C)(C)C [Example 221, 2-(3-(tert-butylthio)-2-methylquinoxalin-5-yl)-6,7-dihydro-1H-pyrrolo[3,2-c]pyridin-4(5H)-one]	3.1 nM	750 nM	4.3 nM	–	–	–
Cc1nc2cccc(-c3cc4c([nH]3)CCNC4=O)c2nc1NC1CCCC(O)C1 (racemic) [Example 204, 2-(3-((3-hydroxycyclohexyl)amino)-2-methylquinoxalin-5-yl)-6,7-dihydro-1H-pyrrolo[3,2-c]pyridin-4(5H)-one]	2.6 nM	445 nM	3.5 nM	–	–	–
Cc1nc2cccc(-c3cc4c(=O)[nH]cnc4[nH]3)c2nc1NC(C)(C)C [Example 261, 6-(3-(tert-butylamino)-2-methylquinoxalin-5-yl)-3H-pyrrolo[2,3-d]pyrimidin-4(7H)-one]	1.22 nM	252 nM	1.29 nM	–	–	–
